Experimental data taken from ChEMBL document CHEMBL1143274, “Potent and selective inhibitors of Helicobacter pylori glutamate racemase (MurI): pyridodiazepine amines” (Bioorg Med Chem Lett, 2009).
Values after ≈ are worked out from the molar mass of the structure shown.

Tests used:
[1] = Metabolic stability in mouse liver microsomes assessed as intrinsic clearance; assay type: ADME, Microsome; set-up: unit not given here
Glutamate racemase [2] = target: T1, Glutamate racemase (Helicobacter pylori J99, UniProt Q9ZLT0); assay: Inhibition of MurI in wild type Helicobacter pylori J99
T1 sequence (Q9ZLT0 whole entry): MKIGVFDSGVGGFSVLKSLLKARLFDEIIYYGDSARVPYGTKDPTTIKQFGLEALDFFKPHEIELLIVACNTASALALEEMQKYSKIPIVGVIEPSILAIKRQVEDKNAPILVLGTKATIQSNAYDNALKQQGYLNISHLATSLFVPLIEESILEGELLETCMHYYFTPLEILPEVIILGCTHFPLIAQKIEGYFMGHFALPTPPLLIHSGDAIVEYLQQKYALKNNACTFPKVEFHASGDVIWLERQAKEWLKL

[3] = Protein binding in mouse plasma; assay type: ADME, cell-free; settings: read-out: PPB (converted)
Helicobacter pylori = assay: Antimicrobial activity against Helicobacter pylori SS1 by NCCLS method; assay type: functional
Liver microsomes = assay: Metabolic stability in human liver microsomes assessed as intrinsic clearance; assay type: ADME, Microsome; set-up: unit not given here
[4] = Inhibition of Escherichia coli MurI
Enterococcus faecalis = assay: Antimicrobial activity against Enterococcus faecalis; assay type: functional
Glutamate racemase [5] = target: T2, Glutamate racemase (Enterococcus faecalis (strain ATCC 700802 / V583), UniProt Q836J0); assay: Inhibition of Enterococcus faecalis MurI
T2 sequence (Q836J0 whole entry): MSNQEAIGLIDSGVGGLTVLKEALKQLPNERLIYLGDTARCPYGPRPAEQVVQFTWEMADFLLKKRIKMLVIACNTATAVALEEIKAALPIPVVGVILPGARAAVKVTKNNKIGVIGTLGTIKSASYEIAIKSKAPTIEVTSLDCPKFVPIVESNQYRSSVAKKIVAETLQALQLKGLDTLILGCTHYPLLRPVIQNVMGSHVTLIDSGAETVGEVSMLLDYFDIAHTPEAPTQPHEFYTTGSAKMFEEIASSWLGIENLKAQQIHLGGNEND

Staphylococcus aureus = assay: Antimicrobial activity against Staphylococcus aureus; assay type: functional
[6] = Distribution coefficient, log D of the compound; assay type: physicochemical; settings: octanol/water
Escherichia coli = assay: Antimicrobial activity against Escherichia coli; assay type: functional
[7] = Inhibition of Staphylococcus aureus MurI

| Compound | CL [1] | IC50 (Glutamate racemase [2]) [µM] | fraction unbound [3] | MIC (Helicobacter pylori) [µg/mL] | CL (Liver microsomes) | IC50 [4] [µM] | MIC (Enterococcus faecalis) [µg/mL] | IC50 (Glutamate racemase [5]) [µM] | MIC (Staphylococcus aureus) [µg/mL] | logD [6] | MIC (Escherichia coli) [µg/mL] | IC50 [7] [µM] |
| --- | --- | --- | --- | --- | --- | --- | --- | --- | --- | --- | --- | --- |
| CNC1=Nc2ncccc2C(c2cc[nH]c2)=NC1c1cccs1 (stereo not given) | 36 | 0.6 | 0.246 | 0.4 (≈ 1.24 µM) | 19 |  |  |  |  |  |  |  |
| CNC1=Nc2ncccc2C(c2ccco2)=NC1c1cc(C#CC(C)O)cs1 (stereo not given) | 17 | 4.9 | 0.091 | 4 (≈ 10.2 µM) | 7 |  |  |  |  |  |  |  |
| CNC1=Nc2ncccc2C(c2ccccc2)=NC1c1cccs1 (stereo not given) | 82 | 2.2 | 0.041 | 0.17 (≈ 0.511 µM) | 40 |  |  |  |  |  |  |  |
| CNC1=Nc2nc(C)ccc2C(c2ccccc2)=NC1c1cccs1 (stereo not given) | > 100 | 1.7 | 0.039 | 0.25 (≈ 0.722 µM) | 73 |  |  |  |  |  |  |  |
| CNC1=Nc2ncccc2C(c2ncco2)=NC1c1cccs1 (stereo not given) | 19 | 7.7 | 0.257 | 1 (≈ 3.09 µM) | < 5 |  |  |  |  |  |  |  |
| CNC1=Nc2ncccc2C(c2ccns2)=NC1c1cccs1 (stereo not given) | 37 | 1.1 | 0.241 | 0.32 (≈ 0.943 µM) | 18 |  |  |  |  |  |  |  |
| CNC1=Nc2ncccc2C(c2ccco2)=NC1c1cncs1 (stereo not given) | 32 | 8.6 | 0.391 | 4 (≈ 12.4 µM) | 22 |  |  |  |  |  |  |  |
| CNC1=Nc2ncccc2C(c2ccco2)=NC1c1ccco1 (stereo not given) | 19 | 18.5 | 0.193 | 8 (≈ 26.1 µM) | 9 |  |  |  |  |  |  |  |
| NC1=Nc2ccccc2C(c2ccccc2)=NC1c1cccs1 (stereo not given) | > 100 | 400 | 0.02 | 32 (≈ 101 µM) | > 100 |  |  |  |  |  |  |  |
| CCNC1=Nc2ccccc2C(c2ccccc2)=NC1c1cccs1 (stereo not given) | > 100 | 1.1 | 0.003 | 2 (≈ 5.79 µM) | 46 |  |  |  |  |  |  |  |
| CNC1=Nc2ccc(Cl)cc2C(c2ccccc2)=NC1c1cccs1 (stereo not given) | > 100 | 13 |  | 8 (≈ 21.9 µM) | 52 |  |  |  |  |  |  |  |
| COCCNC1=Nc2ccccc2C(c2ccccc2)=NC1c1cccs1 (stereo not given) | > 100 | 18.9 |  | 32 (≈ 85.2 µM) | 80 |  |  |  |  |  |  |  |
| c1ccc(C2=NC(c3cccs3)C(N3CCCC3)=Nc3ccccc32)cc1 (stereo not given) | 87 | 4 |  | 8 (≈ 21.5 µM) | 43 |  |  |  |  |  |  |  |
| CNC1=Nc2ncccc2C(c2cccs2)=NC1c1cccs1 (stereo not given) | > 100 | 0.7 | 0.03 | 0.25 (≈ 0.739 µM) | 30 |  |  |  |  |  |  |  |
| CNC1=Nc2ncccc2C(c2ccco2)=NC1c1cccs1 (stereo not given) | 30 | 2 | 0.182 | 0.19 (≈ 0.589 µM) | 13 |  |  |  |  |  |  |  |
| c1ccc(C2=NC(c3cccs3)C(NC3CC3)=Nc3ccccc32)cc1 (stereo not given) | 74 | 1.1 | 0.03 | 8 (≈ 22.4 µM) | 50 |  |  |  |  |  |  |  |
| CNC1=Nc2ccccc2C(c2ccccc2)=NC1c1cccs1 (stereo not given) | 97 | 1.7 | 0.003 | 0.5 (≈ 1.51 µM) | 43 | > 400 | > 64 | > 400 | > 64 | 4.1 | > 64 | > 400 |
| CNC1=Nc2cncnc2C(c2ccccc2)=NC1c1cccs1 (stereo not given) | 26 | 50 | 0.158 | 64 (≈ 192 µM) | 36 |  |  |  |  |  |  |  |
| CNC1=Nc2ncccc2C(c2ccco2)=NC1c1sccc1Cl (stereo not given) | > 150 | 2.8 | 0.013 | 0.5 (≈ 1.4 µM) | 74 |  |  |  |  |  |  |  |
| CNC1=Nc2ncccc2C(c2ccco2)=NC1c1ccns1 (stereo not given) | 27 | 8.7 | 0.264 | 2 (≈ 6.18 µM) | 26 |  |  |  |  |  |  |  |
| CNC1=Nc2ncccc2C(c2nccs2)=NC1c1cccs1 (stereo not given) | 33 | 1.7 | 0.17 | 1 (≈ 2.95 µM) | < 14 |  |  |  |  |  |  |  |
| CNC1=Nc2ncccc2C(C2CCCC2)=NC1c1cccs1 (stereo not given) | > 100 | 4.1 | 0.048 | 8 (≈ 24.7 µM) | 59 |  |  |  |  |  |  |  |
| CNC1=Nc2c(ccc[n+]2[O-])C(c2ccccc2)=NC1c1cccs1 (stereo not given) | 41 | 67 | 0.353 | 16 (≈ 45.9 µM) | < 14 |  |  |  |  |  |  |  |
| OC1CN(C2=Nc3ccccc3C(c3ccccc3)=NC2c2cccs2)C1 (stereo not given) |  |  | 0.01 | 0.25 (≈ 0.669 µM) |  |  |  |  |  |  |  |  |
| CCCNC1=Nc2ccccc2C(c2ccccc2)=NC1c1cccs1 (stereo not given) | > 100 | 4 |  | 16 (≈ 44.5 µM) | 30 |  |  |  |  |  |  |  |
